# Experimental data reported in US9012489B2, “Phenyl-3-aza-bicyclo[3.1.0]hex-3-yl-methanones and the use thereof as medicament” (Boehringer Ingelheim International GmbH, priority 2011, dated 2015).
# pIC50: −log10 of the molar value.
# Target: T1, GlyT1 transporter (Homo sapiens, UniProt P48067)
# T1 construct: endogenously expressing the GlyT1 transporter; host or cells: SK-N-MC human neuroblastoma cells
# T1 sequence (P48067 1-706): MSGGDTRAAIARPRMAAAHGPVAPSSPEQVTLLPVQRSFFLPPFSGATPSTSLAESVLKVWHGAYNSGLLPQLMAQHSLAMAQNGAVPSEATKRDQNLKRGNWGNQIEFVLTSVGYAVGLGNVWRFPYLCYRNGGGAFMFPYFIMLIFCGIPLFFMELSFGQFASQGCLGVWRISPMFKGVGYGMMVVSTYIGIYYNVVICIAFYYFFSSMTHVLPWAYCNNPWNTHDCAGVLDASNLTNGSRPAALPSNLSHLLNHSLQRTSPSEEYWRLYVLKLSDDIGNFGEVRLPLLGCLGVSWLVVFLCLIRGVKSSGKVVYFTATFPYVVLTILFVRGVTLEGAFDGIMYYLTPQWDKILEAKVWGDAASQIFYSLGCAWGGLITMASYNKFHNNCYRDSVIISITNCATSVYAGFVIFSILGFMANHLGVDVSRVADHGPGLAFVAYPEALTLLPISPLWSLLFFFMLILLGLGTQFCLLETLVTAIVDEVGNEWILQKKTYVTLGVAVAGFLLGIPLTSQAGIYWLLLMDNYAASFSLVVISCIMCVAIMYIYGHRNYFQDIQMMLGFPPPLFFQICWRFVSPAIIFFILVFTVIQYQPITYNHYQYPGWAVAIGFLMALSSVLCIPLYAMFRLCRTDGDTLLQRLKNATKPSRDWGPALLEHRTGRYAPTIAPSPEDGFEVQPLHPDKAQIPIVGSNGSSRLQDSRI
# Experiment: GlyT1 assay: 3H-glycine uptake into SK-N-MC cells (Cytostar-T format)
# Type: cell-based
# Details: glycine uptake in human SK-N-MC cells endogenously expressing GlyT1; 500 nM glycine, 1% DMSO, signal recorded over 60 min
# Procedure, shortened: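 Uptake slopes, measured over 60 min from the linear kinetic range, give IC50 from 8 compound concentrations, with 10 μM RG-1678 setting background. Substrate is 500 nM glycine (250 nM ³H, 250 nM unlabelled) in HBSS/5 mM alanine, 1% DMSO, after roughly 5-10 min compound preincubation. Cells: confluent SK-N-MC endogenously expressing human GlyT1.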
row,pIC50,SMILES
1,8.52,"C[C@@H](Oc1ccc(S(C)(=O)=O)cc1C(=O)N1CC2CC2(c2coc(C3CC3)n2)C1)C(F)(F)F (single isomer, unassigned) [Example 83]"
2,7.51,"C[C@H](Oc1ccc(S(C)(=O)=O)cc1C(=O)N1CC2CC2(c2nnc(C(F)(F)F)o2)C1)C(F)(F)F (mixture of isomers) [Example 125, [5-Methanesulfonyl-2-(2,2,2-trifluoro-1-methyl-ethoxy)-phenyl]-[1-(5-trifluoromethyl-[1,3,4]oxadiazol-2-yl)-3-aza-bicyclo[3.1.0]hex-3-yl]-methanone]"
3,6.81,"C[C@@H](Oc1ccc(S(C)(=O)=O)cc1C(=O)N1CC2CC2(c2noc(C3(C(F)(F)F)CC3)n2)C1)C(F)(F)F (single isomer, unassigned) [Example 70, [5-Methanesulfonyl-2-(2,2,2-trifluoro-1-methyl-ethoxy)-phenyl]-{1-[5-(1-trifluoromethyl-cyclopropyl)-[1,2,4]oxadiazol-3-yl]-3-aza-bicyclo[3.1.0]hex-3-yl}-methanone]"
4,7.35,"C[C@H](Oc1ccc(S(C)(=O)=O)cc1C(=O)N1CC2CC2(c2nocc2C(F)(F)F)C1)C(F)(F)F (mixture of isomers) [Example 109, [5-Methanesulfonyl-2-(2,2,2-trifluoro-1-methyl-ethoxy)-phenyl]-[1-(4-trifluoromethyl-isoxazol-3-yl)-3-aza-bicyclo[3.1.0]hex-3-yl]-methanone]"
5,7.21,"C[C@H](Oc1ccc(S(C)(=O)=O)cc1C(=O)N1CC2CC2(c2nc(C(F)(F)F)no2)C1)C(F)(F)F (mixture of isomers) [Example 36, [5-Methanesulfonyl-2-(2,2,2-trifluoro-1-methyl-ethoxy)-phenyl]-[1-(3-trifluoromethyl-[1,2,4]oxadiazol-5-yl)-3-aza-bicyclo[3.1.0]hex-3-yl]-methanone]"
6,8.15,"C[C@H](Oc1ccc(S(C)(=O)=O)cc1C(=O)N1CC2CC2(c2nc(C3CC3)no2)C1)C(F)(F)F (single isomer, unassigned) [Example 143, [1-(3-Cyclopropyl-[1,2,4]oxadiazol-5-yl)-3-aza-bicyclo[3.1.0]hex-3-yl]-[5-methanesulfonyl-2-(2,2,2-trifluoro-1-methyl-ethoxy)-phenyl]-methanone]"
7,6.97,"C[C@@H](Oc1ccc(S(C)(=O)=O)cc1C(=O)N1CC2CC2(c2nccc(C(F)(F)F)n2)C1)C(F)(F)F (single isomer, unassigned) [Example 18, [5-Methanesulfonyl-2-(2,2,2-trifluoro-1-methyl-ethoxy)-phenyl]-[1-(4-trifluoromethyl-pyrimidin-2-yl)-3-aza-bicyclo[3.1.0]hex-3-yl]-methanone]"
8,6.84,"CC(Oc1ccc(C#N)cc1C(=O)N1CC2CC2(c2noc(C(F)(F)F)n2)C1)C(F)(F)F (centres unmarked) [Example 39, 4-(2,2,2-Trifluoro-1-methyl-ethoxy)-3-[1-(5-trifluoromethyl-[1,2,4]oxadiazol-3-yl)-3-aza-bicyclo[3.1.0]hexane-3-carbonyl]-benzonitrile]"
9,8.52,"C[C@@H](Oc1ccc(S(C)(=O)=O)cc1C(=O)N1CC2CC2(c2noc(C3(C(F)(F)F)CC3)n2)C1)C(F)(F)F (single isomer, unassigned) [Example 69, [5-Methanesulfonyl-2-(2,2,2-trifluoro-1-methyl-ethoxy)-phenyl]-{1-[5-(1-trifluoromethyl-cyclopropyl)-[1,2,4]oxadiazol-3-yl]-3-aza-bicyclo[3.1.0]hex-3-yl}-methanone]"
10,7.82,"Cc1cc(C23CC2CN(C(=O)c2cc(S(C)(=O)=O)ccc2O[C@@H](C)C(F)(F)F)C3)no1 (mixture of isomers) [Example 52, [5-Methanesulfonyl-2-(2,2,2-trifluoro-1-methyl-ethoxy)-phenyl]-[1-(5-methyl-isoxazol-3-yl)-3-aza-bicyclo[3.1.0]hex-3-yl]-methanone]"
11,6.80,"C[C@H](Oc1ccc(S(C)(=O)=O)cc1C(=O)N1CC2CC2(c2nccc(C(F)(F)F)n2)C1)C(F)(F)F (single isomer, unassigned) [Example 17, [5-Methanesulfonyl-2-(2,2,2-trifluoro-1-methyl-ethoxy)-phenyl]-[1-(4-trifluoromethyl-pyrimidin-2-yl)-3-aza-bicyclo[3.1.0]hex-3-yl]-methanone]"
12,6.92,"C[C@H](Oc1ccc(S(C)(=O)=O)cc1C(=O)N1CC2CC2(c2nc(C(F)(F)F)co2)C1)C(F)(F)F (single isomer, unassigned) [Example 136, [5-Methanesulfonyl-2-(2,2,2-trifluoro-1-methyl-ethoxy)-phenyl]-[1-(4-trifluoromethyl-oxazol-2-yl)-3-aza-bicyclo[3.1.0]hex-3-yl]-methanone]"
13,8.40,"C[C@H](Oc1ccc(S(C)(=O)=O)cc1C(=O)N1CC2CC2(c2noc(C3(C(F)(F)F)CC3)n2)C1)C(F)(F)F (single isomer, unassigned) [Example 66, [5-Methanesulfonyl-2-(2,2,2-trifluoro-1-methyl-ethoxy)-phenyl]-{1-[5-(1-trifluoromethyl-cyclopropyl)-[1,2,4]oxadiazol-3-yl]-3-aza-bicyclo[3.1.0]hex-3-yl}-methanone]"
14,6.04,"C[C@H](Oc1ccc(S(C)(=O)=O)cc1C(=O)N1CC2CC2(c2cn3ccccc3n2)C1)C(F)(F)F (mixture of isomers) [Example 24, (1-Imidazo[1,2-a]pyridin-2-yl-3-aza-bicyclo[3.1.0]hex-3-yl)-[5-methanesulfonyl-2-(2,2,2-trifluoro-1-methyl-1-ethoxy)-phenyl]-methanone]"
15,7.38,"C[C@H](Oc1ccc(S(C)(=O)=O)cc1C(=O)N1CC2CC2(c2noc(C3CC3)n2)C1)C(F)(F)F (single isomer, unassigned) [Example 10, [1-(5-Cyclopropyl-[1,2,4]oxadiazol-3-yl)-3-aza-bicyclo[3.1.0]hex-3-yl]-[5-methanesulfonyl-2-(2,2,2-trifluoro-1-methyl-ethoxy)-phenyl]-methanone]"
16,6.79,"C[C@H](Oc1ccc(S(C)(=O)=O)cc1C(=O)N1CC2CC2(c2nc(C3CC3)no2)C1)C(F)(F)F (single isomer, unassigned) [Example 144, [1-(3-Cyclopropyl-[1,2,4]oxadiazol-5-yl)-3-aza-bicyclo[3.1.0]hex-3-yl]-[5-methanesulfonyl-2-(2,2,2-trifluoro-1-methyl-ethoxy)-phenyl]-methanone]"
17,7.82,"Cc1nc(C23CC2CN(C(=O)c2cc(S(C)(=O)=O)ccc2O[C@H](C)C(F)(F)F)C3)no1 (mixture of isomers) [Example 101, [5-Methanesulfonyl-2-(2,2,2-trifluoro-1-methyl-ethoxy)-phenyl]-[1-(5-methyl-[1,2,4]oxadiazol-3-yl)-3-aza-bicyclo[3.1.0]hex-3-yl]-methanone]"
18,7.47,"C[C@@H](Oc1ccc(S(C)(=O)=O)cc1C(=O)N1CC2CC2(c2nc(C(F)(F)F)no2)C1)C(F)(F)F (mixture of isomers) [Example 37, [5-Methanesulfonyl-2-(2,2,2-trifluoro-1-methyl-ethoxy)-phenyl]-[1-(3-trifluoromethyl-[1,2,4]oxadiazol-5-yl)-3-aza-bicyclo[3.1.0]hex-3-yl]-methanone]"
19,6.83,"C[C@@H](Oc1ccc(S(C)(=O)=O)cc1C(=O)N1CC2CC2(c2ncc(C(F)(F)F)o2)C1)C(F)(F)F (single isomer, unassigned) [Example 129, [5-Methanesulfonyl-2-(2,2,2-trifluoro-1-methyl-ethoxy)-phenyl]-[1-(5-trifluoromethyl-oxazol-2-yl)-3-aza-bicyclo[3.1.0]hex-3-yl]-methanone]"
20,8.00,"C[C@H](Oc1ccc(S(C)(=O)=O)cc1C(=O)N1CC2CC2(c2nccc(C(F)(F)F)n2)C1)C(F)(F)F (single isomer, unassigned) [Example 16, [5-Methanesulfonyl-2-(2,2,2-trifluoro-1-methyl-ethoxy)-phenyl]-[1-(4-trifluoromethyl-pyrimidin-2-yl)-3-aza-bicyclo[3.1.0]hex-3-yl]-methanone]"
21,8.30,"C[C@@H](Oc1ccc(S(C)(=O)=O)cc1C(=O)N1CC2CC2(c2csc(C(F)(F)F)n2)C1)C(F)(F)F (single isomer, unassigned) [Example 30, [5-Methanesulfonyl-2-(2,2,2-trifluoro-1-methyl-ethoxy)-phenyl]-[1-(2-trifluoromethyl-thiazol-4-yl)-3-aza-bicyclo[3.1.0]hex-3-yl]-methanone]"
22,8.10,Cc1c(C23CC2CN(C(=O)c2cc(S(C)(=O)=O)ccc2O[C@H](C)C(F)(F)F)C3)noc1C(F)(F)F (mixture of isomers) [Example 160]
23,6.30,"C[C@@H](Oc1ccc(S(C)(=O)=O)cc1C(=O)N1CC2CC2(c2nnc(C(F)(F)F)o2)C1)C(F)(F)F (single isomer, unassigned) [Example 124, [5-Methanesulfonyl-2-(2,2,2-trifluoro-1-methyl-ethoxy)-phenyl]-[1-(5-trifluoromethyl-[1,3,4]oxadiazol-2-yl)-3-aza-bicyclo[3.1.0]hex-3-yl]-methanone]"
